Measurements from article PMC9503459, “Antifungal Activity, Structural Stability, and Immunomodulatory Effects on Human Immune Cells of Defensin from the Lentil Lens culinaris” (Membranes, 2022).
Several values for one entry are separate records, joined by “and”; a condition that tells them apart may be missing. Identical values can stand only once. No end group written: not given here.

How the values were obtained:
[1] = system: clinical isolate of Candida albicans (v47a3); test: Antifungal microdilution assay, C. albicans; assay type: cell-based; details: 24 h; for inhibition of the growth: C. albicans
Description: The clinical isolates of Candida albicans (v47a3), C. krusei (225/2) and C. glabrata (252/2) were collected from patients with human immunodeficiency virus (HIV) infection and provided by G.N. Gabrichevsky Research Institute for Epidemiology and Microbiology (Moscow, Russia). Strains stocks were kept at −70 ℃ in 10% nonfat milk with 10% glycerol.
Antifungal susceptibility tests were performed by the microdilution method using 96-well microplates. Yeast cells in stock were inoculated onto modified YPD (yeast extract 5 g/L, peptone 10 g/L, glucose 10 g/L) agar plates, and incubated for 24 h at 37 ℃. After replating, cells were cultured in modified YPD broth at 37 ℃ to optical density 1.0 at 540 nm. Further, yeast cells in modified YPD broth at concentration of 5 × 10^4 cells/mL were mixed with equal volumes of serial two-fold dilutions of the peptide in water which started at the highest peptide concentration of 200 µM. Final peptide concentrations in the wells were 100, 50, 25, 12.5, 6.25, 3.125, and 1.56 μM. Controls without defensin were also tested. Plates were incubated at 30 ℃ during 24 h. Yeast growth was estimated using inverted microscope as well as by measuring the optical density at 540 nm. Percentage of growth inhibition was defined as: growth inhibition (%) = ((Acontrol − Asample)/Acontrol) × 100%. All of the experiments were performed twice in triplicate. The t-test was performed to study the statistical difference (p-value) between the means of controls and samples with different peptide concentrations. The experiment with lentil Lens culinaris lipid transfer protein Lc-LTP2 was carried out for comparison.

[2] = system: primary CD14+ blood monocytes; test: Cytokine response by multiplex xMAP, monocytes; assay type: cell-based, human; details: 2 µM, 24 h
Description: Colorectal adenocarcinoma Caco-2 cell line (ATCC HTB-37) was cultured in complete DMEM/F12 (1:1) medium containing 10% fetal bovine serum (FBS, Gibco) and 1X antibiotic-antimycotic solution (1XAAS, Invitrogen, Waltham, MA, USA). The acute monocytic leukemia THP-1 line (ATCC TIB-202) was cultured in complete RPMI-1640 medium, containing 10% FBS, 1XAAS, and […]. THP-1 cells were differentiated into pro-inflammatory macrophages (Mφ1) with phorbol 12-myristate 13-acetate (Sigma-Aldrich) for 24 h and subsequently polarized with lipopolysaccharide from E. coli (Sigma-Aldrich) and rhIFN-γ (Sigma-Aldrich) for another 48 h according to previously reported protocol. All cells were cultured in a humidified CO2 incubator (5% CO2, 37 °C). Primary peripheral blood mononuclear cells (PBMCs) collected from a healthy donor were purchased from American Type Culture Collection (ATCC PCS-800-011). CD4^+ T-helper and CD8^+ T cytotoxic cells were isolated from PBMCs by magnetic separation with mouse anti-human CD4-PE (clone 13B8.2, Beckman Coulter Diagnostics, Pasadena, CA, USA) and CD8-PE (clone REA734, Miltenyi Biotec, Bergisch Gladbach, Germany), Anti-PE MicroBeads (Miltenyi Biotec), and LS Separation Columns (Miltenyi Biotec). Isolated CD4^+ and CD8^+ cells were expanded separately with Dynabeads™ Human T-Expander CD3/CD28 (Gibco, Waltham, MA, USA) in RPMI-1640 supplemented with 10% FBS, 1XAAS and 100 U/mL rh-IL-2 (Gibco). Regulatory CD4^+ FoxP3^+ T cells (Tregs) were isolated from PBMCs by magnetic separation with CD4^+CD25^+ Regulatory T Cell Isolation Kit, human (Miltenyi Biotec). Primary CD14^+ blood monocytes were isolated from PBMCs by adherence according to standard technique. Monocyte-derived mature dendritic cells (moDCs) were obtained from CD14^+ blood monocytes according to the previously reported protocol. Briefly, blood monocytes were incubated in complete RPMI-1640 medium, containing 10% FBS, 1XAAS, 800 U/mL rhGM-CSF (Sci-Store, Russia, Moscow) and 500 U/mL rhIL-4 (Sci-Store) for 3 days. Fresh complete RPMI-1640 medium with rhGM-CSF and rhIL-4 was added to the culture on day 3. On day 5, fresh complete RPMI-1640 containing 100 U/mL rhTNF-α (Sigma) as well as 800 U/mL rhGM-CSF and 500 U/mL rhIL-4 was added and the culture was incubated for another 4 days until full maturation.
Caco-2 cells were seeded into the wells of a 48-well plate, coated with 0.1% bovine collagen (Sigma-Aldrich) for 24 h, 3 weeks before the experiment with complete DMEM/F12 (1:1) medium renewal every 2–3 days. Monocytes, moDCs, CD4^+ T-helper and CD8^+ T cytotoxic cells, Mφ1, and Regulatory CD4^+ FoxP3^+ T cells were seeded into the wells of 48-well plates in the complete RPMI-1640 medium supplemented with 10% Human AB serum (HABS, Capricorn Scientific, Ebsdorfergrund, Germany) and 1XAAS 24 h prior to the experiment; medium in Caco-2-containing wells was also replaced with the same medium. After 24 h, half of the medium in each well was replaced by fresh complete RPMI-1640 medium with 10% HABS, supplemented with 4 µM of Lc-def for the sample wells or fresh medium alone for the control wells. Cell cultures were kept in CO2-incubator (5% CO2, 37 °C) for another 24 h. Culture supernatants were collected 24 h later and stored at −70 °C degrees less than one month prior to the analytes assessment. […]

For “Lc-def: defensin from lentil Lens culinaris seeds (UniProt:B3F051), recombinant, overexpressed in Escherichia coli (KTCENLSDSFKGPCIPDGNCNKHCKEKEHLLSGRCRDDFRCWCTRNC; disulfide (positions not given here); ends not checked; also: disulfide bonds present, pairing not given here; UniProt B3F051 28-74, looked up)”, the IC50 ([1]; C. albicans clinical isolate, microdilution, modified YPD, 30 °C, OD540, twice in triplicate, read-out: concentration causing 50% growth inhibition) was 25 to 50 µM, the “inhibition of the growth” value ([1]; 50 μM peptide) was “approximately 80%” and the “inhibition of the growth” value ([1]; 100 μM peptide) was less than 100%. The EGF [2] was 11.56 pg/mL, the Eotaxin [2] was <3.23↓ pg/ml and the FGF-2 [2] was 44.46 pg/mL. The FLT-3L [2] was 1.04 pg/mL, the Fractalkine [2] was <23.19↓ pg/ml and the G-CSF [2] was 22.68 pg/mL. For the same substance, the GM-CSF [2] was 3.49 pg/mL, the GROa [2] was 777.01 pg/mL and the IFNa2 [2] was 21.43 pg/mL. For the same substance, the IFNg [2] was <1.99↓ pg/ml, the IL-1RA [2] was 10.83 pg/mL and the IL-1a [2] was 17.69 pg/mL. For the same substance, the IL-1b [2] was <18.72↓ pg/ml, the IL-2 [2] was 2.62 pg/mL and the IL-3 [2] was <0.48↓ pg/ml. The IL-4 [2] was 0.58 pg/mL, the IL-5 [2] was <0.24↓ pg/ml and the IL-6 [2] was 378 pg/mL and 378.12 pg/mL. The IL-7 [2] was <0.33↓ pg/ml, the IL-8 [2] was 5662 pg/mL and the IL-9 [2] was 1.6 pg/mL. For the same substance, the IL-10 [2] was 8.4 pg/mL, the “IL-12 (p40)” value [2] was 19.56 pg/mL and the “IL-12 (p70)” value [2] was 2.22 pg/mL. It also gave an IL-13 [2] of 15.11 pg/mL, an IL-15 [2] of 3.53 pg/mL and an IL-17A [2] of 2.6 pg/mL. For the same substance, the IL-17E/IL-25 [2] was <20.59↓ pg/ml, the IL-17F [2] was <16.96↓ pg/ml and the IL-18 [2] was 2.04 pg/mL. For the same substance, the IL-22 [2] was 17.03 pg/mL, the IL-27 [2] was 60.93 pg/mL and the IP-10 [2] was 529.41 pg/mL. The M-GSF [2] was 38.29 pg/mL, the MCP-1 [2] was 5545 pg/mL and the MCP-3 [2] was 326 pg/mL and 326.33 pg/mL. The MDC [2] was 995.8 pg/mL, the MIG [2] was 1406 pg/mL and the MIP-1a [2] was 14.98 pg/mL. It also gave an MIP-1b [2] of 42.32 pg/mL, a PDGF-AB/BB [2] of 943.35 pg/mL and an RANTES [2] of 5.41 pg/mL. For the same substance, the TGF-a [2] was 1.79 pg/mL, the TNFa [2] was 27.51 pg/mL and the TNFb [2] was 1.77 pg/mL. It also gave a VEGFa [2] of 21.72 pg/mL and a sCD40L [2] of 65.54 pg/mL.
